Data on 5 molecules can be found in BindingDB's records for patent US20230339981 (Gilead Sciences, 2023).

Sequence of GTPase KRas [G12D] (P01116 whole entry G12D): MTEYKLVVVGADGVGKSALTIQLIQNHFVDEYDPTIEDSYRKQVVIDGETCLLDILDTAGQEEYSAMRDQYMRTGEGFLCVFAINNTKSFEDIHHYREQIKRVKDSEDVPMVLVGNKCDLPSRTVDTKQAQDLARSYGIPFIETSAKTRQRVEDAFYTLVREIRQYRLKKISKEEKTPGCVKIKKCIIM

The target of this test is GTPase KRas [G12D] (Homo sapiens, UniProt P01116, G12D). As to the kind of experiment: Biochemical Assay. The procedure:
Compounds were tested for binding to GDP-loaded KRAS G12D in a 384-well assay format using a TR-FRET probe displacement assay in buffer consisting of 50 mM Hepes (pH 7.4), 150 mM NaCl, 5 mM MgCl2 and 0.005% Tween-20. […] Compounds were serially diluted (1:3) in DMSO. The LabCyte ECHO Acoustic dispenser system was used to pre-spot the assay plates (384-well Non-Binding Surface plates, Corning, Catalog #3824) with 50 nL of compound. The compounds were pre-incubated with 5 μL of 2× final enzyme concentration for 30 minutes before adding 5 μL of 2× final concentration of Eu-streptavidin and TR-FRET probe (10 μL final reaction volume). The plates were incubated at room temperature for 2 hours before measuring TR-FRET ratio on the Envision plate reader. IC50 values were defined as the compound concentration that causes a 50% decrease in TR-FRET ratio and were calculated using a sigmoidal dose-response model to generate curve fits.
For `C#Cc1c(F)ccc2cc(O)cc(-c3nc4c5c(nc(OC[Si](C)(C)CN6CCOCC6)nc5c3F)N3C[C@H]5CC[C@H](N5)[C@H]3CO4)c12` [US20230339981, Example 29], the midpoint of inhibition, the IC50, lay at 560 nM.
Turning to `Fc1ccc2cccc(-c3nc4c5c(nc(OC[C@@]67CCCN6C[C@H](F)C7)nc5c3F)N3C[C@H]5CC[C@H](N5)[C@H]3CC4)c2c1OC(F)(F)F` [US20230339981, Example 65], the IC50 was 89 nM.
For the molecule `C#Cc1c(F)ccc2cc(O)cc(-c3nc4c5c(nc(OC[C@@]67CCCN6C[C@H](F)C7)nc5c3F)N3C[C@H]5CC[C@H](N5)[C@@H]3CC4)c12` [US20230339981, Example 133], inhibition was half-maximal at 0.1 nM (IC50).
As to `C#Cc1c(F)ccc2cccc(-c3nc4c5c(nc(OC[C@@]67CCCN6C[C@@H](OC(F)(F)F)C7)nc5c3F)N3C[C@H]5CC[C@H](N5)[C@H]3CC4)c12` [US20230339981, Example 140], 3.7 nM corresponded to half-maximal inhibition (IC50).
Under `C#Cc1c(F)ccc2cc(O)cc(-c3nc4c5c(nc(OCC6(CN7CCC8(CC7)CC8)CC6)nc5c3F)N3C[C@H]5CC[C@H](N5)[C@H]3CC4)c12` [US20230339981, Example 177] stands 0.1 nM.
